Measured values from US6713051B2, “Antiperspirant or deodorant compositions” (Unilever Home & Personal Care USA division of Conopco, Inc., priority 2001, dated 2004).

Biological target: T1, human PPARα (Homo sapiens, UniProt Q07869)
T1 construct: The coding region of a human PPARα cDNA was inserted downstream of the CMV promoter; expressed in transfected cells; host or cells: Cos-7 cells, transient transfection (pcDNA3.1(−)-PPARα, pRSV-RXRα, 3xPPRE-TK-luc reporter, pRL-TK)
T1 sequence (Q07869 1-468): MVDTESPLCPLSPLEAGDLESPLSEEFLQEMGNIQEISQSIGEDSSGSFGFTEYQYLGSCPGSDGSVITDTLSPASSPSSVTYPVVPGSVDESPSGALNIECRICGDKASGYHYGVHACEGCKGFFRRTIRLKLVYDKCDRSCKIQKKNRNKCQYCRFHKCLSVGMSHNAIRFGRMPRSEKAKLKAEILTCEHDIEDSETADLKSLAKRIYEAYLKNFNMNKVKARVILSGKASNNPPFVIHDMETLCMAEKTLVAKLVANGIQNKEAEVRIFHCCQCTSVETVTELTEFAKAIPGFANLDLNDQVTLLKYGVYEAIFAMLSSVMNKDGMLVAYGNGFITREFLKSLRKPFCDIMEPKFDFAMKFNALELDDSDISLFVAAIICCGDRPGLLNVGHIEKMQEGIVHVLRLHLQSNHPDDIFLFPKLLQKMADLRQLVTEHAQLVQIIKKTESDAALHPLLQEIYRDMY
T1 sequence (P19793 1-462 partner): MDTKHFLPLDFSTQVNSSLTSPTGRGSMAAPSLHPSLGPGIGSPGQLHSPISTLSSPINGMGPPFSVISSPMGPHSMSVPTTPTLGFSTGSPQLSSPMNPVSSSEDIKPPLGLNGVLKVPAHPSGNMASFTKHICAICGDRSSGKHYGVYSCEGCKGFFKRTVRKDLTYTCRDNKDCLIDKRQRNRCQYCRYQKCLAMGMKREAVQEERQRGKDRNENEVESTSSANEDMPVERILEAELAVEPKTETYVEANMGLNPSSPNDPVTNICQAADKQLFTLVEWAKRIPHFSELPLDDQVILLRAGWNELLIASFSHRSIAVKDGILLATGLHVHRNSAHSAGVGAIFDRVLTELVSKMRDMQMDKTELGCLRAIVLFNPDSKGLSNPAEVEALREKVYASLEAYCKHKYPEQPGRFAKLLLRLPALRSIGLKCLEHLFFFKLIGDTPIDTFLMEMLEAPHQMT
Assay: PPARα reporter gene assay (firefly luciferase, transiently transfected Cos-7 cells)
Assay type: cell-based
Conditions: for Pass at (lowest tested administration level at which the test material passed): pass = activation greater than oleic acid at 100 μM, commonly >1.57 times vehicle control, 24 h treatment; for Result (superior activity class achieved): class reached
Source text: One convenient reporter assay for determining whether a fatty acid material is PPARα activating is based upon the firefly luciferase gene.
Fatty acids were screened to identify PPAR activating fatty acids using a reporter assay.
This assay relied on ligands binding to and activating the PPARα protein, which, in turn, activated genes under the control of PPAR response elements (PPRE). In the assay, the firefly luciferase gene was cloned behind a promoter containing 3 copies of the fatty acid binding protein PPRE.
The assay was performed by transient transfection of Cos-7 cells with a mixture of four DNA plasmids. These were:
1) PPAR reporter gene construct (Modified pNF-KB-luc reporter vector (Firefly luciferase reporter vector commercially available form Clontech (NF-kB response element, TK minimal promoter, luc^+, f1 origin, pUC origin, amp^r)). A tandem repeat of 3 PPAR response elements (PPREs) corresponding to the PPRE found in the fatty acid binding protein promoter was inserted upstream of the minimal TK promoter to replace the NF-κB response element);
2) 2) Over-expressing PPARα construct (Modified pcDNA3.1(−) vector (A mammalian expression vector commercially available from Invitrogen (CMV promoter, f1 origin, SV40 origin, ColE1 origin, neo^r, amp^r)). The coding region of a human PPARα cDNA was inserted downstream of the CMV promoter of pcDNA3.1 (−)). […] The coding region of a human RXRα cDNA has been inserted downstream of the RSV promoter. (Gift of V. K. K. Chatterjee, Addenbrooke's Hospital, Cambridge)) 4) Control luciferase construct (pRL-TK Renilla luciferase reporter vector commercially available from Promega (HSV-TK promoter, T7 promoter, Rluc^+, ori, amp^r)). For the transfection, DNA was made up as a mix of PPAR reporter gene: PPARα: RXRα: control in the ratio 40:4:3:3.
Cos-7 cells were grown in Dulbecco's modified Eagle's Medium, also herein referred to as DMEM with 10% foetal calf serum, herein also referred to as FCS at 37° C., 5% CO2 to 80% confluency. Cells were then plated out in 24 well plates at 50,000 cells per well and incubated overnight in DMEM with 10% FCS at 37° C., 5% CO2. Cells were then transfected using the LipofectAMINE reagent (GibcoBRL). For each well 0.4 μg of DNA mix (in 25 μl of DMEM) was incubated with 1 μl LipofectAMINE (in 25 μl of DMEM) for 45 minutes. The mixture was then made up to 250 μl per well and added to the cells, which had been washed with 1 ml of DMEM. Cells were then incubated for 5 hours at 37° C., 5% CO2 and 250 μl DMEM with 10% SBCS (charcoal stripped bovine calf serum) added. Cells were incubated for 18 hours at 37° C., 5% CO2 before being treated with the appropriate compound/extract. Test compounds were made up as 1000× stocks (in DMSO or ethanol as appropriate) and diluted into DMEM with 10% SBCS (500 μl per well) immediately before being added to cells. Each treatment was performed in triplicate. The transfection mix was removed from the cells and replaced with the treatment mix, and incubated for 24 hours at 37° C., 5% CO2. Cells were washed with 1 ml of PBS (without calcium or magnesium) and then lysed with 100 μl per well of 1× Passive Lysis Buffer (as supplied with Promega Dual Luciferase assay kit). Lysis was allowed to continue for 15 minutes and then the lysate was assayed for Firefly and Renilla luciferase activity using the Promega Dual Luciferase assay kit. For the assay, 20 μl of lysate was taken and assayed as described in the kit instructions using a MLX microtiter™ plate luminometer (Dynex).
Firefly luciferase activity (PPAR driven) was normalised against the Renilla luciferase value for that well and the mean calculated for the three wells treated with the same agent. Activity was then expressed as fold activation over the vehicle (DMSO or ethanol) control values for that particular plate.

Row | SMILES | Pass at (lowest tested administration level at which the test material passed) [μm] | Result at (lowest administration level at which super or MS activity was achieved) [μm] | Result (superior activity class achieved) | PPARα activation compared with the vehicle control (100 μM, base-line)
1 | CCCCC/C=C/CCCCCCCCCCC(=O)O [trans-12-octadecenoic acid] | 100 | – | – | –
2 | CCC=CCC=CCC=CCC=CCC=CC/C=C\CCC(=O)O [cis-4,7,10,13,16,19 docosahexenoic acid] | 10 | – | – | –
3 | CC/C=C/C/C=C/C/C=C/CCCCCCCC(=O)O [Linolenelaidic acid, linolenelaidic acid] | 25 | 25 | super (superior activity [super] (50% higher—at least 2.25 times PPARα activation)) | –
4 | CCCCCCCC/C=C/CCCCCCCC(=O)O [Elaidic acid] | 100 | – | – | –
5 | CCCCCC=CCC=CCC=CC/C=C\CCCCCC(=O)O [cis-7,10,13,16 docosatetraenoic acid] | 100 | 100 | super (superior activity [super] (50% higher—at least 2.25 times PPARα activation)) | –
6 | CCCC\C=C/C=C/C=C\CCCCCCCC(=O)O [Punicic acid, punicic acid] | 25 | – | – | –
7 | CC/C=C\C/C=C\C/C=C\C/C=C\CCCCC(=O)O [Stearidonic/octadecatetraenoic acid, stearidonic acid] | 25 | 25 | super (superior activity [super] (50% higher—at least 2.25 times PPARα activation)) | –
8 | CCCCCCCC/C=C\CCCCCCCC(=O)O [Oleic acid, reference compound] | – | – | – | Base-line Oleic acid (1.57 at 100 μM) times
9 | CCCCCC=CCC=CC/C=C\CCCCCCC(=O)O [cis-8,11,14 eicosatrienoic acid] | 100 | 100 | super (superior activity [super] (50% higher—at least 2.25 times PPARα activation)) | –
10 | Cc1cccc(Nc2cc(Cl)nc(SCC(=O)O)n2)c1C [WY14,643, reference compound] | 10 | 100 | super (superior activity [super] (50% higher—at least 2.25 times PPARα activation)) | –
11 | CCC=CCC=CC/C=C\CCCCCCCCCCCC(=O)O [cis-13,16,19 docosatrienoic acid] | 100 | – | – | –
12 | CCCCCCCCC#CCCCCCCCC(=O)O [Stearolic acid] | 10 | – | – | –

More lines, main results first:

Row | Pass at (lowest tested administration level at which the test material passed) [μm] | Result at (lowest administration level at which super or MS activity was achieved) [μm] | SMILES | Result (superior activity class achieved) | PPARα activation compared with the vehicle control (100 μM, base-line)
13 | 100 | – | CCCCCCCC/C=C\CCCCCCCCCC(=O)O [cis-11 eicosenoic acid] | – | –
14 | 10 | 25 | CCCCCC[C@@H](O)C/C=C/CCCCCCCC(=O)O [Ricinolaidic acid, ricinolaidic acid] | MS (more superior activity [MS] (100% higher—at least 3 times PPARα activation)) | –
15 | 10 | 10 | CCCCCCCCCC/C=C/CCCCCC(=O)O [Trans-7-octadecenoic acid] | MS (more superior activity [MS] (100% higher—at least 3 times PPARα activation)) | –
16 | 10 | 100 | CCCCC/C=C\C/C=C\CCCCCCCC(=O)O [Linoleic acid] | super (superior activity [super] (50% higher—at least 2.25 times PPARα activation)) | –
17 | 50 | 100 | CCCCCCCCCCC/C=C/CCCCC(=O)O [Petroselaidic acid] | super (superior activity [super] (50% higher—at least 2.25 times PPARα activation)) | –
18 | 25 | – | CCCCC/C=C/C/C=C/CCCCCCCC(=O)O [Linolelaidic acid] | – | –
19 | 10 | 100 | CCCCCCCCCCCCCC/C=C\CCCC(=O)O [cis-5 eicosenoic acid] | MS (more superior activity [MS] (100% higher—at least 3 times PPARα activation)) | –
20 | 50 | 100 | CCCCCC/C=C/C=C/CCCCCCCC(=O)O [CLA (t9, t11)] | MS (more superior activity [MS] (100% higher—at least 3 times PPARα activation)) | –
21 | 10 | – | CCCCCC[C@@H](O)C/C=C\CCCCCCCC(=O)O [Ricinoleic acid, ricinoleic acid] | – | –
22 | 10 | 100 | CCCCCC=CC/C=C\CCCCCCCCCC(=O)O [cis-11,14-eicosadienoic acid] | MS (more superior activity [MS] (100% higher—at least 3 times PPARα activation)) | –
23 | 50 | – | CCCC/C=C\CCCCCCCCCCCC(=O)O [cis-13-octadecenoic acid] | – | –
24 | 100 | – | CC/C=C\CCCCCCCCCCCCCC(=O)O [cis-15-octadecanoic acid] | – | –
25 | 10 | – | CCCCCC=CC/C=C\CCCCCCCCCCCC(=O)O [cis 13,16 docosadienoic acid] | – | –
26 | 50 | – | CCCCCC/C=C\CCCCCCCC(=O)O [Palmitoleic acid] | – | –
